Measurements as given in patent US5081131A, “Omega-((hetero)alkyl)benz(cd)-indol-2-amines” (American Cyanamid Company, priority 1988, dated 1992).
Counter-ions that a name gives are not always drawn. Like-named read-outs stand apart in the source and are kept apart here.

What was measured:
[1] = tested on: spontaneously hypertensive rats; assay: Hypotensive activity in spontaneously hypertensive rats (MABP); assay type: in vivo, rat (Okamoto strain); conditions: SHR, gavage, two doses of 10 mg/kg or less 24 h apart, MABP at 28 h; average baseline 160±1.5 mm Hg
Experimental: The novel compounds of the present invention are active hypotensive agents and were tested for hypotensive activity by the method of P. S. Chan and D. Poorvin, Clinical and Experimental Hypertension, 1 (6), 817-830 (1979). Male, 16 week old, spontaneously hypertensive rats of the Okamoto strain, from Taconic Farms, Germantown, N.Y., having an average mean arterial blood pressure of 160±1.5 mm of mercury, were used in the test. One to 4 rats were used per test compound. A rat was dosed by gavage with a test compound, suspended in 2% pre-boiled starch at a concentration of 50 mg/ml, at a doses of 10 mg/kg of body weight or less, with 0.9% sodium chloride loading at a dose of 25 ml/kg of body weight. A second identical dose of the test compound, without sodium chloride loading was given 24 hours later. At 28 hours after initial dose the mean arterial blood pressure (MABP) was measured. The procedure was repeated in a second and third rat when necessary.

[2] = target: T1, thromboxane synthetase enzyme (Rattus norvegicus, UniProt P49430); assay: Thromboxane synthetase enzyme inhibition (TXB2 formation in washed platelets, RIA); assay type: cell-based, spontaneously hypertensive rat; conditions: SHR platelets, 10 min at 37° C.
T1 construct: endogenous in cells; host or cells: washed platelets from arterial blood of male Okamoto-Aoki spontaneously hypertensive rats (animals from Taconic Farms, Germantown, N.Y.)
T1 sequence (P49430 1-533): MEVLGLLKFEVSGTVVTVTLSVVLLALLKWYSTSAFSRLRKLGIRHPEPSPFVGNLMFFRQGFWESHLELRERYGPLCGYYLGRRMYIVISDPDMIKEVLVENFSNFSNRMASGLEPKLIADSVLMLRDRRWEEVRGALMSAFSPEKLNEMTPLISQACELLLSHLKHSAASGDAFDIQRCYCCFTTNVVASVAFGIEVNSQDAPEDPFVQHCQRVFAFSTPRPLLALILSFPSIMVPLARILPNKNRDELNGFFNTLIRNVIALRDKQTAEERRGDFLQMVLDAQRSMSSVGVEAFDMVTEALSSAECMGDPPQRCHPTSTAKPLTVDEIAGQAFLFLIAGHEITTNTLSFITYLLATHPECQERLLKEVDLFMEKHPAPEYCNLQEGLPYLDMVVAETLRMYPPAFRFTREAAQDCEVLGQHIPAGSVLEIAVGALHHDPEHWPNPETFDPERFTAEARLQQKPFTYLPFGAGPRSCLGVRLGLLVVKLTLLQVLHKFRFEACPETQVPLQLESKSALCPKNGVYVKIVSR
Experimental: The blood was diluted with 3 ml cold saline and centrifuged at room temperature for 15 min at 468×g. The platelet rich plasma (PRP) was separated. The platelets were isolated by certrifuging the PRP for 10 minutes at 1060×g and washed in 4 ml cold oxygenated Krebs phosphate buffer, pH 7.4. The chilled platelets recovered from centrifuging at 800×g for 10 minutes were resuspended in oxygenated Krebs phosphate buffer and diluted to contain 4.0-6.0×10^4 platelets/micro-liters. The inhibition of TX formation was studied by determining the concentration of thromboxane B2 (TXB2), the stable hydrolysis product of TXA2. Assay samples prepared on ice, contained 200 micro-liters platelet suspension, 50 micro-liters saline, and 50 micro-liters […] (saline) or drug under study. The test drug (0.003 mole) was dissolved in 5 ml of saline. […] The assay samples were incubated for 10 minutes at 37° C. in a metabolic shaker at about 60 rpm. The reaction was terminated by immersing the tubes in an ice bath and adding 50 micro-liters of 0.5M citric acid. The samples were centrifuged for 10 minutes at 2000 rpm at 4° C., and the supernatants were decanted.

[3] = 1×10^-4 Molar, read-out: % Inhibition (Thromboxane Synthetase Enzyme Inhibition)

Row | inhibition at 100 µM [2, 3] [%] | SMILES | Avg. MABP in mm Hg (No. of Rats) [1] [mm Hg] | also measured
1 | 100 | c1ccc(-c2nccn2CCCNC2=Nc3cccc4cccc2c34)cc1 [N-(3-(2-Phenyl-1H-imidazol-1-yl)propyl)benz(cd)indol-2-amine, hydriodide] | – | –
2 | 89 | CN(CCc1ccccn1)C1=Nc2cccc3cccc1c23 [N-Methyl-N-(2-(2-pyridinyl)ethyl)benz(cd)indol-2-amine fumarate] | – | –
3 | 97 | c1cc2c3c(cccc3c1)C(NCCCCCCCCCCCCn1ccnc1)=N2 [N-(12-(1H-imidazol-1-yl)dodecyl)benz(cd)indol-2-amine] | 133 | –
4 | 89 | c1ccc(CCCCNC2=Nc3cccc4cccc2c34)nc1 [N-(4-(2-Pyridinyl)butyl)benz(cd)indol-2-amine, sesqui-fumarate] | 106 | –
5 | 88 | c1cc2c3c(cccc3c1)C(NCCc1ccncc1)=N2 [N-(2-(4-Pyridinyl)ethyl)benz(cd)indol-2-amine, sesqui-fumarate] | 115 | –
6 | 95 | CC(=O)N(CCCc1cccnc1)C1=Nc2cccc3cccc1c23 [N-Benz(cd)indol-2-yl-N-(3-(3-pyridinyl)propyl)acetamide] | 85 | –
7 | 95 | CC(CNC1=Nc2cccc3cccc1c23)Cn1ccnc1.Cl.Cl (stereo not drawn) [N-(3-(1H-imidazol-1-yl)-2-methylpropyl)benz(cd)indol-2-amine, dihydrochloride] | 113 | –
8 | 95 | CCC(=O)N(CCC(C)n1ccnc1)C1=Nc2cccc3cccc1c23 (stereo not drawn) [N-Benz(cd)indol-2-yl-N-(3-(1H-imidazol-1-yl)butyl)propionamide] | – | –
9 | 97 | N#CCCN(Cc1ccccn1)C1=Nc2cccc3cccc1c23 [N-(2-Cyanoethyl)-N-(2-pyridinylmethyl)benz(cd)indol-2-amine, dihydrochloride] | – | –
10 | 95 | CC(CCNC1=Nc2cccc3cccc1c23)c1ccncc1 (stereo not drawn) [N-(3-(4-pyridinyl)butyl)benz(cd)indol-2-amine] | – | –
11 | 98 | c1cc2c3c(cccc3c1)C(NCCOCCn1ccnc1)=N2 [N-(2-(2-(1H-imidazol-1-yl)ethoxy)ethyl)benz(cd)indol-2-amine bis-fumarate] | – | –
12 | 73 | c1ccc(-n2ncc(CNC3=Nc4cccc5cccc3c45)n2)cc1 [N-((2-Phenyl-2H-1,2,3-triazol-2-yl)methyl)benz(cd)indol-2-amine fumarate] | – | –
13 | 77 | O=C(c1ccccc1)N(CCCn1cncn1)C1=Nc2cccc3cccc1c23 [N-Benz(cd)indol-2-yl-N-(3-(1H-1,2,4-triazol-1-yl)propyl)benzamide] | – | –
14 | 88 | OC(CNC1=Nc2cccc3cccc1c23)Cn1ccnc1 (stereo not drawn) [N-(3-(1H-imidazol-1-yl)-2-hydroxypropyl)benz(cd)indol-2-amine] | – | –
15 | 82 | Cc1nccn1CCCNC1=Nc2cccc3cccc1c23 [N-(3-(2-Methyl-1H-imidazol-1-yl)propyl)benz(cd)indol-2-amine, monohydriodide] | – | –
16 | 92 | c1cc2c3c(cccc3c1)C(NCCCn1ccnc1)=N2 [N-(3-(1H-imidazol-1-yl)propyl)benz(cd)indol-2-amine, fumarate] | – | –
17 | 96 | O=C(c1ccc(Cl)cc1)N(CCCCn1ccnc1)C1=Nc2cccc3cccc1c23 [N-Benz(cd)indol-2-yl-4-chloro-N-(4-(1-imidazol-1-yl)butylbenzamide] | – | –
18 | 68 | c1cncc(CNC2=Nc3cccc4cccc2c34)c1 [N-(3-Pyridinylmethyl)benz(cd)indol-2-amine, fumarate] | – | –
19 | 95 | c1ccc(CNC2=Nc3cccc4cccc2c34)nc1 [N-(2-Pyridinylmethyl)benz(cd)indol-2-amine, fumarate] | – | –

The remaining lines, values behind:

Row | SMILES | inhibition at 100 µM [2, 3] [%] | Avg. MABP in mm Hg (No. of Rats) [1] [mm Hg] | also measured
20 | Brc1ccc2c3c(cccc13)C(NCCCCc1cccnc1)=N2 [6-Bromo-N-(4-(3-pyridinyl)butyl)benz(cd)indol-2-amine sesqui-fumarate] | 92 | 110 | –
21 | c1cc2c3c(cccc3c1)C(NCCCCn1ccnc1)=N2 [N-(4-(1H-imidazol-1-yl)butyl)benz(cd)indol-2-amine sesquibut] [N-(4-(1H-imidazol-1-yl)butyl)benz(cd)indol-2-amine sesquibutanedioic acid salt] | – | – | % Inhibition (Thromboxane Synthetase Enzyme Inhibition) ([2]; 1×10^-4 Molar): 98%
22 | O=C(O)/C=C/C(=O)O.c1cc2c3c(cccc3c1)C(NCc1ccc(Cn3ccnc3)cc1)=N2 [N-((4-(1H-imidazol-1-ylmethyl)phenyl)methyl)benz(cd)indol-2-amine, fumarate] | 100 | 121 | –
23 | C(=C/Cn1ccnc1)/CNC1=Nc2cccc3cccc1c23 [(Z)-N-(4-(1H-imidazol-1-yl)-2-butenyl)benz(cd)indol-2-amine, hydriodide] | – | 106 | % Inhibition (Thromboxane Synthetase Enzyme Inhibition) ([2]; 1×10^-4 Molar): 100%
24 | Cn1cccc1CCNC1=Nc2cccc3cccc1c23 [N-(2-(1-Methyl-1H-pyrrol-2-yl)ethyl)benz(cd)indol-2-amine, fumarate] | 90 | – | –
25 | C(=C/Cn1ccnc1)/CNC1=Nc2cccc3cccc1c23.Cl.Cl [(Z)-N-(4-(1H-imidazol-1-yl)-2-butenyl)benz(cd)indol-2-amine, dihydrochloride] | 97 | 77 | –
26 | Brc1ccc2c3c(cccc13)C(NCCCCn1ccnc1)=N2 [6-Bromo-N-(4-(1H-imidazol-1-yl)butyl)benz(cd)indol-2-amine] | 98 | 120 | –
27 | Brc1ccc2c3c(cccc13)C(NCCCCCCCCCCCCn1ccnc1)=N2 [6-Bromo-N-(12-(1H-imidazol-1-yl)dodecyl)benz(cd)indol-2-amine] | 90 | 128 | –
28 | Clc1ccc2c3c(cccc13)C(NCCCCCn1ccnc1)=N2 [6-Chloro-N-(5-(1H-imidazol-1-yl)pentyl)benz(cd)indol-2-amine] | 100 | – | –
29 | c1cc2c3c(cccc3c1)C(NCCCCn1ccnc1)=N2 [N-(4-(1H-imidazol-1-yl)butyl)benz(cd)indol-2-amine monobutanedioic acid salt] | – | – | inhibition at 100 µM ([2]; read-out: % Inhibition (Thromboxane Synthetase Enzyme Inhibition), 1×10^-4 Molar): 93%
30 | Brc1ccc2c3c(cccc13)C(NCCCCCCCCCCn1ccnc1)=N2 [6-Bromo-N-(10-(1H-imidazol-1-yl)decyl)benz(cd)indol-2-amine] | 94 | – | –
31 | c1cc2c3c(cccc3c1)C(NCCn1ccnc1)=N2 [N-(2-(1H-imidazol-1-yl)ethyl)benz(cd)indol-2-amine] | 71 | – | –
32 | Clc1ccc(C(Cn2ccnc2)NC2=Nc3cccc4cccc2c34)cc1 (stereo not drawn) [N-(1-(4-chlorophenyl)-2-(1H-imidazol-1-yl)ethyl)benz(cd)indol-2-amine, fumarate] | 35 | – | –
33 | CC(CCCNC1=Nc2cccc3cccc1c23)n1ccnc1.O=C(O)/C=C/C(=O)O.O=C(O)/C=C/C(=O)O (stereo not drawn) [N-(4-(1H-imidazol-1-yl)pentyl)benz(cd)indol-2-amine, bis-fumarate] | – | – | % Inhibition (Thromboxane Synthetase Enzyme Inhibition) ([2]; 1×10^-4 Molar): 99%
34 | c1cc2c3c(cccc3c1)C(NCCCCn1ccnc1)=N2 [N-(4-(1H-imidazol-1-yl)butyl)benz(cd)indol-2-amine, hydriodi] [N-(4-(1H-imidazol-1-yl)butyl)benz(cd)indol-2-amine, hydriodide] | – | – | % Inhibition (Thromboxane Synthetase Enzyme Inhibition) ([2]; 1×10^-4 Molar): 100%
